“Also recorded” adds a separate entry of the source.
Columns and labels:
[1] = system: NKG2DL (MICA-B, ULBP1-3) surface expression; experiment: flow cytometry of NKG2DL cell surface expression in cancer cell lines; type: cell-based, human; conditions: for NKG2DL expression, compound alone: HCT116 cells, 3 days; for effect of co-treatment on SPIR's upregulation of NKG2DLs: HCT116, SPIR 56 μM 3 days, HX531 10 μM, caffeine 1.5 mM, wortmannin 10 μM, KU55933 10 μM, VE-821 10 μM
Experimental: Data are representative of five independent experiments. […] Controls were stained with APC-conjugated anti-human Fc antibody alone without preincubation with NKG2D-Fc. Data are representative of three independent experiments. […] Results are representative of two independent experiments. […] (E) NKG2DL mRNA expression in the colon cancer cell lines was analyzed by qRT-PCR analysis. Data are normalized to GAPDH mRNA levels and are presented as fold-change relative to the expression in DMSO-treated cells (n=5). (F) Lentiviral-based luciferase reporter construct containing the putative ULBP2 promoter (−2415 to 0 bp from the transcription start site: 73 bp upstream of ATG) was transduced into the colon cancer cell lines. Positively transduced cells were selected by puromycin treatment (2 μg/ml) for 2 weeks. […] Data shown are expressed as fold-change relative to the luciferase activity observed in DMSO-treated cells (n=3). * P<0.05, ** P<0.01.
(§1) Cell lines were stained with allophycocyanin-conjugated anti-MICA, anti-MICB, or anti-ULBP2 antibodies for 20 min at 4° C. For ULBP1 and ULBP3 staining, cells were first incubated with anti-ULBP1 and anti-ULBP3 antibodies and then with allophycocyanin-conjugated goat anti-mouse IgG antibody. To analyze total NKG2DL cell surface expression, cells were first incubated with human NKG2D-Fc for 20 min at 4° C. and then with allophycocyanin-conjugated mouse anti-human IgG (Fc) antibody. Cells were washed and analyzed on a C6 flow cytometer (Accuri). Data were analyzed using FlowJo software (TreeStar).

[2] = system: HCT116, HT29, and CAL27 cells; experiment: wound-healing assay; type: cell-based, human; conditions: HCT116 cells
Experimental: (§2) The number of cells that invaded the ECM was determined after 24 h. Data are expressed as percentage change in tumor invasion relative to that of DMSO-treated cells (n=3). (D) Wound healing by DMSO- and SPIR-treated HCT116, HT29, and CAL27 cells was compared. Data are calculated as the percentage change in distance of migration relative to that of DMSO-treated cells (n=3). […] Tumor xenografts and lung metastases were detected by bioluminescence imaging on day 25. Data are shown as the average total flux (photons/second)±standard deviation (n=8). (F) The lung metastases (arrows) were confirmed by examining lung tissue sections. * P≤0.05, ** P<0.01, *** P<0.005, **** P<0.0001.
Confluent cell layers of CAL27 and HT29 cells with a 500 μm±50 μm gap were formed by using Ibidi culture inserts (RPI Corp.). Gap distances were measured at various times using a Nikon Eclipse Ti inverted microscope and NIS-Elements software (Nikon).

[3] = system: TIMP2 and TIMP3; experiment: qRT-PCR of TIMP2 and TIMP3 mRNA; type: cell-based, human; conditions: HCT116 cells, 3 days
Experimental: as §2
For qRT-PCR, total RNA was extracted from untreated or drug-treated tumor cells by using the RNA Clean & Concentrator (Zymo Research). All cDNA was generated by using the SuperScript VILO cDNA Synthesis kit (Life Technologies) and diluted 10-fold for analysis using the 7900HT Fast Real-time PCR System (Applied Biosystems). The data were calculated as the CT of target genes normalized to the CT of GAPDH of each sample. Primer sequences of the target genes were: MICA-F: 5′-[…]-3′, (SEQ ID NO: 14) MICA-R: 5′-[…]-[…]-3′, (SEQ ID NO: 15) MICB-F: 5′-[…]-3′, (SEQ ID NO: 16) MICB-R:5′-CCCTC-[…]-3′, (SEQ ID NO: 17), ULBP1-F:5′-[…]-3′, (SEQ ID NO: 18), ULBP1-R:5′-[…]-3′, (SEQ ID NO: 19), ULBP2-F:5′-[…]-3′, (SEQ ID NO: 20), ULBP2-R:5′-[…]-3′, (SEQ ID NO: 21), ULBP3-F:5′-[…]-TTCG-3′, (SEQ ID NO: 22), ULBP3-R:[…]-3′, (SEQ ID NO: 23), TIMP2-F:5′-[…]-[…]-3′, (SEQ ID NO: 24), TIMP2-R:[…]-3′, (SEQ ID NO: 25), TIMP3-F:5′-[…]-3′, (SEQ ID NO: 26), TIMP3-R:5′-[…]-[…]-3′ (SEQ ID NO: 27), GAPDH-F: 5′-[…]3′ (SEQ ID NO: 28), GAPDH-R: 5′-G-[…]-3′ (SEQ ID NO: 29). […] Differentially expressed transcripts were analyzed by ANOVA on Spotfire program.

[4] = system: HCT116, HT29, and CAL27 cells; experiment: in vitro cell invasion assay (ECM-coated Transwell); type: cell-based, human; conditions: HCT116 cells
Experimental: as §2
The invasiveness of the tumor cells was determined by using the CytoSelect 96-well Cell Invasion Assay with Basement Membrane (Cell Biolabs) according to the manufacturer instructions.

[5] = system: 47 NHRs in HCT116 cells; experiment: human nuclear hormone receptor siRNA library / siRNA knockdown, NKG2DL expression by NKG2D-Fc staining; type: cell-based
Experimental: as §1
For the transfection study, 2×10^5 cells were transfected with 60 pmol of siRNA molecules using lipofectamine RNAiMAX according to the manufacturer's instructions (Invitrogen).
Consistent with previous reports, RXR-gamma was constitutively expressed in HCT116 cells (FIG. 5C) (Papi et al. 2010. Cancer Lett 297:65-74). Expression of RXR-gamma mRNA was also observed in all other cell lines tested. (FIG. 5D).

For `CC1=C(/C=C/C(C)=C\C=C\C(C)=C\C(=O)O)C(C)(C)CCC1` [9-cis-RA, 9-cis-retinoic acid], the “NKG2DL expression, compound alone” value [1] was “did not induce the upregulation of NKG2DL expression; also recorded: decrease was observed”.

In the case of `CN1c2ccc([N+](=O)[O-])cc2N=C(c2ccc(C(=O)O)cc2)c2cc3c(cc21)C(C)(C)CCC3(C)C` [HX531], the “effect of co-treatment on SPIR's upregulation of NKG2DLs” value (from here on “effect of co-treatment … of NKG2DLs”) [1] is reported as “significantly reduced”.

`O=c1cc(-c2cccc3c2Sc2ccccc2S3)oc(N2CCOCC2)c1` [KU55933] was tested, and the “effect of co-treatment … of NKG2DLs” value [1] was “completely abolished”.

With `CS(=O)(=O)c1ccc(-c2cnc(N)c(C(=O)Nc3ccccc3)n2)cc1` [VE-821] the “effect of co-treatment … of NKG2DLs” value [1] was “only partially reduced” and the “effect of co-treatment on NKG2DL expression at increased concentration” value ([1]; HCT116, SPIR 56 μM, VE-821 20 μM) was “did not further affect NKG2DL expression”.

For `Cn1c(=O)c2c(ncn2C)n(C)c1=O` [caffeine], the “effect of co-treatment … of NKG2DLs” value [1] was “completely abolished”.

In the case of `C[C@]12CCC(=O)C=C1C=C[C@@H]1[C@@H]2CC[C@@]2(C)[C@H]1CC[C@@]21CCC(=O)O1` [canrenone], the “cell migration, MR antagonists vs SPIR” value [2] is reported as “did not reproduce the suppressive effect of SPIR”, the TIMP2 expression [3] is reported as “neither canrenone nor eplerenone upregulated TIMP2 expression” and the “NKG2DL expression, compound alone” value [1] is reported as “did not reproduce the phenotypes of enhanced expression of NKG2DL”. The “cell invasion, MR antagonists vs SPIR” value [4] was “did not reproduce the suppressive effect of SPIR”.

For `COC(=O)[C@@H]1CC2=CC(=O)CC[C@]2(C)[C@@]23O[C@@H]2C[C@@]2(C)[C@@H](CC[C@@]24CCC(=O)O4)[C@H]13` [eplerenone], the “cell migration, MR antagonists vs SPIR” value [2] was “did not reproduce the suppressive effect of SPIR”, the TIMP2 expression [3] was “neither canrenone nor eplerenone upregulated TIMP2 expression” and the “NKG2DL expression, compound alone” value [1] was “did not reproduce the phenotypes of enhanced expression of NKG2DL”. The “cell invasion, MR antagonists vs SPIR” value [4] was “did not reproduce the suppressive effect of SPIR”.

In the case of “RXR-alpha siRNA: siRNA targeting RXR-alpha, ThermoScientific Cat No. D-003443-06; GGGAGAAGGUCUAUGCGUC (listed as RNA, chemistry not given here)”, the “NKG2DL expression after gene knockdown without drug treatment” value [5] is reported as “enhances the expression of NKG2DLs; also recorded: increase of NKG2DL expression” and the “SPIR-mediated NKG2DL upregulation after siRNA knockdown” value [5] is reported as “did not affect the potential of SPIR in upregulating NKG2DL expression”.
